Patent EP3421457B1, “PYRIMIDINE FGFR4 INHIBITORS” (priority 2013, dated 2015)
Like-named read-outs stand apart in the source and are kept apart here.

How the values were obtained:
Hep3B cells = assay type: in vivo; conditions: Hep3B xenograft; for efficacy (tumor volume): FIG. 4
FGFR4 = molecular target: T1, FGFR4 (Homo sapiens, UniProt P22455); test: IC50 Profiling of Kinase Activity Inhibition (Kinase HotSpot assay); assay type: biochemical; conditions: Table 1
T1 construct: purchased Invitrogen

FGFR1 = molecular target: T2, FGFR1 (Homo sapiens, UniProt P11362); test: as above; assay type: biochemical; conditions: Table 1
T2 construct: purchased Invitrogen

HUH7 = test: Cellular Viability assay to obtain GI50 (CellTiter-Glo); assay type: cell-based; conditions: Homo sapiens, Huh-7; HUH7, 72h, FGF19 amplified line
HEP3B = test: as above; assay type: cell-based; conditions: Homo sapiens, 72h, FGF19 amplified line
HEPG2 = test: as above; assay type: cell-based; conditions: Homo sapiens; HEPG2, 72h, FGF19 non-amplified
JHH7 = test: as above; assay type: cell-based; conditions: Homo sapiens; JHH7, 72h, FGF19 amplified line

T2 sequence (P11362 22-822): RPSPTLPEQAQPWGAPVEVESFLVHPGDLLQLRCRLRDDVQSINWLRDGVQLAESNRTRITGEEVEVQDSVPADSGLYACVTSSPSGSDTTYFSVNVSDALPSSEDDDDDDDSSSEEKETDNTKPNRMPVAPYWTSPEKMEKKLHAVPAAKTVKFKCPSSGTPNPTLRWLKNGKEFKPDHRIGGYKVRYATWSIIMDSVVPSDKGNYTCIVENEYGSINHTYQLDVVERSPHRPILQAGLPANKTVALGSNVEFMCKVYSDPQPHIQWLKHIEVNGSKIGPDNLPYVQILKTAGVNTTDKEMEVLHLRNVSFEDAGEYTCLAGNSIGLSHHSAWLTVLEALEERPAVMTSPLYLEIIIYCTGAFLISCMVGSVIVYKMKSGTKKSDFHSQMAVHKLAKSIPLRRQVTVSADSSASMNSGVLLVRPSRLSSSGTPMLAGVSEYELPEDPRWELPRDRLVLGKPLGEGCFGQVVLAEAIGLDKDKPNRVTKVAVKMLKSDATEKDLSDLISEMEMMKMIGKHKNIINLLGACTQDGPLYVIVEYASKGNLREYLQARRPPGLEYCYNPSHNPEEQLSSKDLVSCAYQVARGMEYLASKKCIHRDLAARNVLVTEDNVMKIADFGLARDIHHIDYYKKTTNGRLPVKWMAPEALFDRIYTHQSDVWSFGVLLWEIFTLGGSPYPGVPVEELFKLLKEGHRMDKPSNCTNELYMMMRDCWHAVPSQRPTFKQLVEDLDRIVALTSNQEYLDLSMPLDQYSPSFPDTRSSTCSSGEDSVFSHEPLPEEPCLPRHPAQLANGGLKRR
T1 sequence (P22455 22-802): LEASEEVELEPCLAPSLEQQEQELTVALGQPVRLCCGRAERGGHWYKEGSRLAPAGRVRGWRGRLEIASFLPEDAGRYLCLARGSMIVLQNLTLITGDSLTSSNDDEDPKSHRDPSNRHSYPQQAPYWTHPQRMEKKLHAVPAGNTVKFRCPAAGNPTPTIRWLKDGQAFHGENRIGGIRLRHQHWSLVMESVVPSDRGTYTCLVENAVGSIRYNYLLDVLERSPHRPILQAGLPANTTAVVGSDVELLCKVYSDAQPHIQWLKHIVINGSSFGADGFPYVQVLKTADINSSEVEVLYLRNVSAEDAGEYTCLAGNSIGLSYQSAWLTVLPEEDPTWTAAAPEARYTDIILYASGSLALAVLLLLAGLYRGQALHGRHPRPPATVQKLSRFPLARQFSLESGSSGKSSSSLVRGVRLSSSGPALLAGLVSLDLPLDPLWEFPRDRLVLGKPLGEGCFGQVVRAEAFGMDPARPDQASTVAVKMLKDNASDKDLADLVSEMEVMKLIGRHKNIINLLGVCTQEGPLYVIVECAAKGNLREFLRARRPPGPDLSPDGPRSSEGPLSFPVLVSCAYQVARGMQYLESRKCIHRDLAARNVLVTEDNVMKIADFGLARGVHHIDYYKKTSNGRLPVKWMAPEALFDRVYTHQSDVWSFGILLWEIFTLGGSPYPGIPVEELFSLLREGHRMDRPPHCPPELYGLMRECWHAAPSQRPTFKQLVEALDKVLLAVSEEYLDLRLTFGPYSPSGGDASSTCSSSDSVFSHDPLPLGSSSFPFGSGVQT

Structure (SMILES): C=CC(=O)Nc1cc(N2CCN(CC)CC2)ccc1Nc1cc(N(C)C(=O)Nc2c(Cl)c(OC)cc(OC)c2Cl)ncn1 [Compound 108, N-(2-(6-(3-(2,6-Dichloro-3,5-dimethoxyphenyl)-1-methylureido)pyrimidin-4-ylamino)-5-(4-ethylpiperazin-1-yl)phenyl)acrylamide]
- efficacy (tumor volume) (Hep3B cells; dosed for 18 days, Compound 108 versus BGJ398): more efficacious than BGJ398 at tolerable dosage levels

Structure (SMILES): C=CC(=O)Nc1ccccc1Nc1cc(N(C)C(=O)Nc2cccc(OC)c2Cl)ncn1 [Compound 103]
- IC50 (FGFR4): 0.673 µM
- IC50 (FGFR1): > 10 µM

Structure (SMILES): C=CC(=O)Nc1ccccc1Nc1cc(N(C)C(=O)Nc2cc(OC)cc(OC)c2Cl)ncn1 [Compound 105]
- IC50 (FGFR4): 0.201 µM
- IC50 (FGFR1): > 10 µM

Structure (SMILES): CCN1CCN(c2ccc(Nc3cc(N(C)C(=O)Nc4c(Cl)c(OC)cc(OC)c4Cl)ncn3)cc2)CC1 [BGJ398]
- GI50 (HUH7): 0.231 ± 0.1 µM
- GI50 (HEP3B): 0.074 ± 0.023 µM
- GI50 (HEPG2): 2.26 ± 1.18 µM
- GI50 (JHH7): 0.178 ± 0.03 µM
- efficacy (tumor volume) (Hep3B cells; BGJ398 at 60mg/kg): efficacy comparable to compound 108
- toxicity (health of animals) (Hep3B cells; BGJ398 at 60mg/kg): terminated on Day 11 due to poor health of animals
- toxicity (health of animals) (Hep3B cells; dosed orally with BGJ398 at 30mg/kg): did not exhibit poor health
